Test results: US20120148492A1, “BISPHOSPHONIC ACID DERIVATIVE AND COMPOUND THEREOF LABELED WITH RADIOACTIVE METAL NUCLIDE” (FUJIFILM RI PHARMA CO., LTD., priority 2009, published 2012)

What was measured:
[1] = In vivo distribution of 68Ga-DOTA-alendronate in rats; set-up: species or system rat; conditions: for Blood radioactivity / Bone radioactivity / Kidney radioactivity / Large intestine radioactivity / Liver radioactivity / Muscle radioactivity / Small intestine radioactivity / Spleen radioactivity / Bone/blood: Wistar male rats, 120 minutes after drug administration; for Blood radioactivity / Bone radioactivity / Kidney radioactivity / Large intestine radioactivity / Liver radioactivity / Muscle radioactivity / Small intestine radioactivity / Spleen radioactivity: tail vein; for Bone/blood: ratio of radioactivity accumulation
Protocol: To groups, each containing three Wistar male rats, 0.2 mL of each of 68Ga-DOTA-alendronate and 99mTc-MDP (product name: Techne MDP injection, manufactured by FUJIFILM RI Pharma Co., Ltd., 740 MBq/2 mL), each diluted to 12.3 to 19.8 MBq/mL, was administered into the rat tail vein under anesthesia. Then, 120 minutes after administration, the rats were sacrificed, organs were excised, and the weight and the radioactivity of each organ were measured. The measurement values were calculated as % I.D./g tissue weight, which is the radioactivity in each tissue divided by the tissue weight, as the ratio with respect to the dose.

[2] = Rat in vivo distribution experiment; conditions: for Blood radioactivity / Bone radioactivity / Kidney radioactivity / Large intestine radioactivity / Liver radioactivity / Muscle radioactivity / Small intestine radioactivity / Spleen radioactivity / Bone/blood: Wistar male rats; for Blood radioactivity / Bone radioactivity / Kidney radioactivity / Large intestine radioactivity / Liver radioactivity / Muscle radioactivity / Small intestine radioactivity / Spleen radioactivity: tail vein; for Bone/blood: ratio of radioactivity accumulation
Protocol: Subsequently, 15, 30, 60, 120, and 240 minutes after administration, the rats were sacrificed, organs were excised, and the weight and the radioactivity of each organ were measured. The measurement values were calculated as % I.D./g tissue weight, which is the radioactivity in each tissue divided by the tissue weight, as the ratio with respect to the dose.

[3] = Wistar male rats, 18.5 to 37 MBq tail vein, from 60 minutes after administration
Protocol: To Wistar male rats, 68Ga-NOTA-alendronate and 99m Tc-MDP were each administered into the rat tail vein in amounts of 18.5 to 37 MBq under anesthesia. Then, 60 and 180 minutes after administration, images were taken by PET/CT or a SPECT camera.

[4] = test system: local bone metastasis model (human prostate cancer-derived cells transplanted into the right tibia); conditions: local bone metastasis model mouse, approximately 6.0 MBq, from 60 minutes after administration
Protocol: Human prostate cancer-derived cells were transplanted into the right tibia of a mouse to produce a local bone metastasis model. To this model mouse, approximately 6.0 MBq of 68Ga-NOTA-alendronate was administered into the […] under anesthesia. An image was taken by PET/CT 60 minutes after administration.

With `O=C([O-])CN1CCN(CC(=O)[O-])CCN(CC(=O)NCCCC(O)(P(=O)(O)O)P(=O)(O)O)CCN(CC(=O)[O-])CC1.[68Ga+3]` [68Ga-DOTA-alendronate] the “radioactivity accumulation in bone” value ([1]; 120 minutes after administration, as 99mTc-MDP did) was “high radioactivity accumulation in bone”, the Blood radioactivity [1] was 0.024 % I.D./g and the Bone radioactivity [1] was 4.54 % I.D./g. For the same compound, the Kidney radioactivity [1] was 0.26 % I.D./g, the Large intestine radioactivity [1] was 0.055 % I.D./g and the Liver radioactivity [1] was 0.018 % I.D./g. The Muscle radioactivity [1] was 0.005 % I.D./g, the Small intestine radioactivity [1] was 0.522 % I.D./g and the Spleen radioactivity [1] was 0.020 % I.D./g. The clearance from blood ([1]; rat, versus 99mTc-MDP) was “delayed clearance from blood”, the Bone/blood [1] was 189 and the “ratio of radioactivity accumulation in bone/blood” value ([1]; two hours after administration, versus 99mTc-MDP) was “no improvement”.

For `O=C([O-])CN1CCN(CC(=O)[O-])CCN(C(CCC(=O)NCCCC(O)(P(=O)(O)O)P(=O)(O)O)C(=O)[O-])CC1.[68Ga+3]` (stereo not drawn) [68Ga-NOTA-alendronate], the Blood radioactivity ([2]; 15 min after administration) was 0.399 % I.D./g, the Bone radioactivity ([2]; 15 min after administration) was 3.64 % I.D./g and the Kidney radioactivity ([2]; 15 min after administration) was 3.43 % I.D./g. The Large intestine radioactivity ([2]; 15 min after administration) was 0.132 % I.D./g, the Liver radioactivity ([2]; 15 min after administration) was 0.081 % I.D./g and the Muscle radioactivity ([2]; 15 min after administration) was 0.085 % I.D./g. The Small intestine radioactivity ([2]; 15 min after administration) was 0.121 % I.D./g, the Spleen radioactivity ([2]; 15 min after administration) was 0.103 % I.D./g and the Blood radioactivity ([2]; 30 min after administration) was 0.145 % I.D./g. The Bone radioactivity ([2]; 30 min after administration) was 4.17 % I.D./g, the Kidney radioactivity ([2]; 30 min after administration) was 0.89 % I.D./g and the Large intestine radioactivity ([2]; 30 min after administration) was 0.054 % I.D./g. It also gave a Liver radioactivity ([2]; 30 min after administration) of 0.039 % I.D./g, a Muscle radioactivity ([2]; 30 min after administration) of 0.033 % I.D./g and a Small intestine radioactivity ([2]; 30 min after administration) of 0.070 % I.D./g. The Spleen radioactivity ([2]; 30 min after administration) was 0.046 % I.D./g, the Blood radioactivity ([2]; 60 min after administration) was 0.030 % I.D./g and the Bone radioactivity ([2]; 60 min after administration) was 4.59 % I.D./g. The Kidney radioactivity ([2]; 60 min after administration) was 0.43 % I.D./g, the Large intestine radioactivity ([2]; 60 min after administration) was 0.023 % I.D./g and the Liver radioactivity ([2]; 60 min after administration) was 0.020 % I.D./g. For the same compound, the Muscle radioactivity ([2]; 60 min after administration) was 0.008 % I.D./g, the Small intestine radioactivity ([2]; 60 min after administration) was 0.056 % I.D./g and the Spleen radioactivity ([2]; 60 min after administration) was 0.021 % I.D./g. The Blood radioactivity ([2]; 120 min after administration) was 0.005 % I.D./g, the Bone radioactivity ([2]; 120 min after administration) was 5.19 % I.D./g and the Kidney radioactivity ([2]; 120 min after administration) was 0.37 % I.D./g. For the same compound, the Large intestine radioactivity ([2]; 120 min after administration) was 0.019 % I.D./g, the Liver radioactivity ([2]; 120 min after administration) was 0.015 % I.D./g and the Muscle radioactivity ([2]; 120 min after administration) was 0.004 % I.D./g. It also gave a Small intestine radioactivity ([2]; 120 min after administration) of 0.073 % I.D./g, a Spleen radioactivity ([2]; 120 min after administration) of 0.014 % I.D./g and a Blood radioactivity ([2]; 240 min after administration) of 0.003 % I.D./g. It also gave a Bone radioactivity ([2]; 240 min after administration) of 4.75 % I.D./g, a Kidney radioactivity ([2]; 240 min after administration) of 0.28 % I.D./g and a Large intestine radioactivity ([2]; 240 min after administration) of 0.077 % I.D./g. It also gave a Liver radioactivity ([2]; 240 min after administration) of 0.016 % I.D./g, a Muscle radioactivity ([2]; 240 min after administration) of 0.002 % I.D./g and a Small intestine radioactivity ([2]; 240 min after administration) of 0.011 % I.D./g. For the same compound, the Spleen radioactivity ([2]; 240 min after administration) was 0.012 % I.D./g, the “ratio of radioactivity accumulation in bone to that in blood” value ([2]; compared to 99mTc-MDP, from an early stage after administration) was “dominantly improved” and the accumulation in bone ([2]; compared to 99mTc-MDP, rat) was “equivalent value of accumulation in bone”. For the same compound, the “clearance of radioactivity from blood” value ([2]; compared to 99mTc-MDP, rat) was “more rapid clearance of radioactivity from blood”, the “non-specific accumulation in other organs” value ([2]; rat, similar amount to that of 99mTc-MDP) was “almost no non-specific accumulation” and the Bone/blood ([2]; 15 min after administration) was 9. The Bone/blood ([2]; 30 min after administration) was 29, the Bone/blood ([2]; 60 min after administration) was 155 and the Bone/blood ([2]; 120 min after administration) was 958. The Bone/blood ([2]; 240 min after administration) was 1696, the “visualization of bone in images” value [3] was “bone is clearly visualized” and the “visualization of bone and bone lesion in PET/CT image” value [4] was “bone and the arrowed bone lesion are clearly visualized”.

Work on `O.O.O=P([O-])([O-])CP(=O)([O-])[O-].[99Tc+4]` [99mTc-MDP] yielded a Blood radioactivity ([2]; 15 min after administration) of 0.415 % I.D./g, a Bone radioactivity ([2]; 15 min after administration) of 3.25 % I.D./g and a Kidney radioactivity ([2]; 15 min after administration) of 2.84 % I.D./g. For the same compound, the Large intestine radioactivity ([2]; 15 min after administration) was 0.121 % I.D./g, the Liver radioactivity ([2]; 15 min after administration) was 0.086 % I.D./g and the Muscle radioactivity ([2]; 15 min after administration) was 0.085 % I.D./g. For the same compound, the Small intestine radioactivity ([2]; 15 min after administration) was 0.134 % I.D./g, the Spleen radioactivity ([2]; 15 min after administration) was 0.107 % I.D./g and the Blood radioactivity ([2]; 30 min after administration) was 0.171 % I.D./g. The Bone radioactivity ([2]; 30 min after administration) was 3.41 % I.D./g, the Kidney radioactivity ([2]; 30 min after administration) was 1.02 % I.D./g and the Large intestine radioactivity ([2]; 30 min after administration) was 0.062 % I.D./g. The Liver radioactivity ([2]; 30 min after administration) was 0.048 % I.D./g, the Muscle radioactivity ([2]; 30 min after administration) was 0.036 % I.D./g and the Small intestine radioactivity ([2]; 30 min after administration) was 0.093 % I.D./g. It also gave a Spleen radioactivity ([2]; 30 min after administration) of 0.056 % I.D./g, a Blood radioactivity ([2]; 60 min after administration) of 0.044 % I.D./g and a Bone radioactivity ([2]; 60 min after administration) of 3.97 % I.D./g. It also gave a Kidney radioactivity ([2]; 60 min after administration) of 0.62 % I.D./g, a Large intestine radioactivity ([2]; 60 min after administration) of 0.020 % I.D./g and a Liver radioactivity ([2]; 60 min after administration) of 0.029 % I.D./g. It also gave a Muscle radioactivity ([2]; 60 min after administration) of 0.010 % I.D./g, a Small intestine radioactivity ([2]; 60 min after administration) of 0.081 % I.D./g and a Spleen radioactivity ([2]; 60 min after administration) of 0.027 % I.D./g. It also gave a Blood radioactivity ([2]; 120 min after administration) of 0.018 % I.D./g, a Bone radioactivity ([2]; 120 min after administration) of 4.07 % I.D./g and a Kidney radioactivity ([2]; 120 min after administration) of 0.36 % I.D./g. For the same compound, the Large intestine radioactivity ([2]; 120 min after administration) was 0.053 % I.D./g, the Liver radioactivity ([2]; 120 min after administration) was 0.022 % I.D./g and the Muscle radioactivity ([2]; 120 min after administration) was 0.005 % I.D./g. For the same compound, the Small intestine radioactivity ([2]; 120 min after administration) was 0.299 % I.D./g, the Spleen radioactivity ([2]; 120 min after administration) was 0.019 % I.D./g and the Blood radioactivity ([2]; 240 min after administration) was 0.012 % I.D./g. The Bone radioactivity ([2]; 240 min after administration) was 4.25 % I.D./g, the Kidney radioactivity ([2]; 240 min after administration) was 0.35 % I.D./g and the Large intestine radioactivity ([2]; 240 min after administration) was 0.467 % I.D./g. It also gave a Liver radioactivity ([2]; 240 min after administration) of 0.019 % I.D./g, a Muscle radioactivity ([2]; 240 min after administration) of 0.004 % I.D./g and a Small intestine radioactivity ([2]; 240 min after administration) of 0.056 % I.D./g. The Spleen radioactivity ([2]; 240 min after administration) was 0.019 % I.D./g, the Bone/blood ([2]; 15 min after administration) was 8 and the Bone/blood ([2]; 30 min after administration) was 20. The Bone/blood ([2]; 60 min after administration) was 91, the Bone/blood ([2]; 120 min after administration) was 228 and the Bone/blood ([2]; 240 min after administration) was 358. It also gave a Blood radioactivity [1] of 0.021 % I.D./g, a Bone radioactivity [1] of 4.38 % I.D./g and a Kidney radioactivity [1] of 0.44 % I.D./g. It also gave a Large intestine radioactivity [1] of 0.015 % I.D./g, a Liver radioactivity [1] of 0.024 % I.D./g and a Muscle radioactivity [1] of 0.007 % I.D./g. For the same compound, the Small intestine radioactivity [1] was 0.224 % I.D./g, the Spleen radioactivity [1] was 0.020 % I.D./g and the Bone/blood [1] was 209.
